Reference: article PMC6099591, “(2E,5E)-2,5-Bis(3-hydroxy-4-methoxybenzylidene) cyclopentanone Exerts Anti-Melanogenesis and Anti-Wrinkle Activities in B16F10 Melanoma and Hs27 Fibroblast Cells” (Molecules : A Journal of Synthetic Chemistry and Natural …, 2018)

Legend:
[1] = system: cellular tyrosinase in B16F10 melanoma cells; experiment: Cellular tyrosinase activity assay in α-MSH-induced B16F10 cells; format: cell-based, murine; conditions: 24 h pretreatment then α-MSH (5 µM) 48 h, α-MSH only control 181%
Protocol: (§1) Figure 4 Inhibition of melanin contents (a) and cellular tyrosinase activity (b) of BHCP on B16F10 melanoma cells. […] Melanin content of the pellet was evaluated at 405 nm (a); intracellular tyrosinase activity was determined with L-DOPA as the substrate, and the absorbance of L-DOPA chrome was read at 492 nm (b). Data are expressed as mean ± S.E.M of three independent experiments. One-way ANOVA was used to determine the significances of differences: ^# p < 0.05 compared to the control group without α-MSH treatment. ** p < 0.01 and * p < 0.05 compared to the α-MSH-treated control group.
Cellular tyrosinase activity assay was performed by measuring the rate of oxidation of L-DOPA [35]. B16F10 cells at a density of 5 × 10^4/cells were placed in 6-well dishes and incubated overnight. […] The cells were washed with PBS and lysed in a solution containing 100 µL of 50 mM phosphate buffer (pH 6.5), 0.1 mM phenylmethylsulfonylfluoride (PMSF), and 1% Triton X-100. Then, the cells were placed in a deep freezer machine (−80 °C) for 30 min. After defrosting the cells, the cellular extracts were purified by centrifugation at 12,000 rpm for 30 min at 4 °C. A total of 80 µL the supernatant and 20 µL of L-DOPA (2 mg/mL) were added to a 96-well plate, and the absorbance at a wavelength of 492 nm was measured every 10 min during 1 h at 37 °C with an ELISA plate reader (TECAN, Salzburg, Austria).

[2] = target: Mushroom tyrosinase (EC 1.14.18.1) (Agaricus bisporus, UniProt C7FF04); experiment: Kinetic analysis of tyrosinase inhibition (Lineweaver-Burk and Dixon plots); format: biochemical; conditions: Lineweaver-Burk plot
Sequence of Mushroom tyrosinase (EC 1.14.18.1) (G1K3P4 entry or part of it): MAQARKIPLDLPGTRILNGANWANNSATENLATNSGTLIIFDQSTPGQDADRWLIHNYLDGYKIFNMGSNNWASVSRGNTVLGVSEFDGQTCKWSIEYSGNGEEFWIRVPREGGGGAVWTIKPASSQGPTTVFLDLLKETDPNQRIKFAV
Sequence of Mushroom tyrosinase (EC 1.14.18.1) (C7FF04 1-392): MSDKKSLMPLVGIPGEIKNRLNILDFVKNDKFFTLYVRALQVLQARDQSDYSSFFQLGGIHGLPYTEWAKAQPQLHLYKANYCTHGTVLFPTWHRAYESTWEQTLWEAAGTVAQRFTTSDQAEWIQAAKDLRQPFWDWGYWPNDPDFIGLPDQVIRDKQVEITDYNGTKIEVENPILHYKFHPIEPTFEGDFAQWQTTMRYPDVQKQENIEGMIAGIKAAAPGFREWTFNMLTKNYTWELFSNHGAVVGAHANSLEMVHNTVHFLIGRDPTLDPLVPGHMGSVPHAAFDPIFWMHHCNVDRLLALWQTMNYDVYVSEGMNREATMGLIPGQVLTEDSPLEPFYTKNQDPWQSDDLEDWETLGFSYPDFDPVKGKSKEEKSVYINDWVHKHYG
Text: Furthermore, the mechanism responsible for tyrosinase inhibition by BHCP was investigated by enzyme kinetic analysis in the present study (Table 1 and Figure 2). Lineweaver–Burk plots were drawn using the data obtained from the kinetic studies, and the inhibition constant (Ki) was obtained from the Dixon plots. The Lineweaver–Burk double reciprocal plots indicated competitive-type inhibition. […] Moreover, intercepts on the x-axis of Dixon plots are commonly used to determine the types of enzyme inhibition constants (Ki) for an enzyme–inhibitor complex, where the value of the x-axis indicates the value of −Ki.
Figure 2 Lineweaver–Burk (a,c) and Dixon (b,d) plots for tyrosinase enzyme inhibition by BHCP. […]
To determine the kinetic mechanisms, two kinetic methods (Lineweaver–Burk and Dixon plots) were complementarily used. For the Lineweaver–Burk double reciprocal plots (a plot of 1/enzyme velocity (1/V) versus 1/substrate concentration (1/[S])), the inhibition type was determined using various concentrations of L-tyrosine (1, 2, and 4 mM) and L-DOPA (0.5, 1, and 2 mM) as substrates in the presence of different concentrations of BHCP. […]

B16F10 melanoma cells [3] = experiment: Cell viability, EZ-Cytox assay, B16F10; format: cell-based, murine; conditions: up to 10 µM, 48 h
Protocol: (§2) Figure 3 Cell viability of BHCP on B16F10 melanoma (a) and Hs27 fibroblast cells (b). Cells were treated with various concentrations (0–10 μM) of BHCP for 24 h and 48 h, respectively, and cell viability was measured by EZ-Cytox assay.
(§3) The viability of cells was assessed using the EZ-Cytox kit assay. In brief, B16F10 cells and Hs27 fibroblasts were seeded into a 96-well plate at a density of 1 × 10^4 cells/well and incubated at 37 °C for 24 h. The cells were fed fresh, serum-free DMEM that contained different concentrations (0, 1, 2, 5, and 10 µM) of BHCP, and incubated for 24 and 48 h. Subsequently, 10 μL of EZ-Cytox solution was loaded into each well and the cells were incubated for 2–4 h. The absorbance measurement of cells in the absence of any treatment was regarded as 100% cell survival. Each treatment was performed in triplicate and each experiment was repeated three times.

Hs27 fibroblast cells = experiment: Cell viability, EZ-Cytox assay, Hs27; format: cell-based, human; conditions: up to 10 µM, 48 h
Protocol: as §2, §3

B16F10 melanoma cells [4] = experiment: Melanin content in α-MSH-induced B16F10 cells; format: cell-based, murine; conditions: 24 h pretreatment then α-MSH (5 µM) 48 h, α-MSH only control 186%
Protocol: as §1
The effect of BHCP on α-MSH-induced melanogenesis in B16F10 cells was based on a previously used method with slight modifications. Briefly, B16F10 cells (5 × 10^4 cells/well) in 6-well plates were allowed to grow to 70–80% confluence. […] After treatment, the cells were washed twice with ice-cold PBS, dissolved in 90 µL 1 M NaOH solution including DMSO (5%) at 60 °C for 1 h, and the absorbance was measured at 405 nm with a microplate spectrophotometer (TECAN, Salzburg, Austria). To measure the amount of melanin in the experiment, the rate of inhibition in the treatment groups were calculated from the absorbance of the known concentrations of synthetic melanin, which were corrected to the total amount of protein that was present in the supernatant of the cell lysates. The absorbance of untreated cells was measured in triplicate.

tyrosinase = experiment: Western blot, tyrosinase protein level in α-MSH-stimulated B16F10 cells; format: cell-based, murine; conditions: 1 and 10 µM, 24 h, then α-MSH (5 µM) 48 h; normalized by β-actin
Protocol: (§4) Figure 5 Effects of BHCP on the expression levels of phosphorylation of CREB, MITF, and tyrosinase in α-MSH-stimulated B16F10 melanoma cells. Cells were preincubated with or without 1 and 10 μM BHCP for 24 h and were stimulated with α-MSH (5 μM) for an additional 48 h. Harvested cells were lysed and then examined for the expression levels of p-CREB, CREB, MITF, and tyrosinase by Western blotting (a); The protein levels of tyrosinase (b); MITF (c); and p-CREB (d) were quantitated with CS analyzer software. Tyrosinase, MITF, and p-CREB protein levels were normalized by β-actin. Data are expressed as mean ± S.E.M. of three independent experiments. ^# p < 0.05 versus untreated control; * p < 0.05 versus α-MSH stimulation.
(§5) Lysate samples were boiled for 10 min in gel-loading buffer (125 mM Tris-HCl, 4% sodium dodecyl sulfate (SDS), 10% 2-mercaptoethanol, and 0.2% bromophenol blue; pH 6.8) at a volume ratio of 1:1. The total protein equivalents for each sample were separated by SDS-polyacrylamide gel electrophoresis (PAGE) using acrylamide gels as based on the procedure described by Laemmli and transferred to PVDF membranes at 80 V for 2 h using the wet-transfer system. […] Antibody labeling was detected by enhanced chemiluminescence in accordance with the manufacturer’s instructions. Protein quantitation was performed using the Davinch-Chemi TM. […]

MITF = experiment: Western blot, MITF protein level in α-MSH-stimulated B16F10 cells; format: cell-based, murine; conditions: 1 and 10 µM, 24 h, then α-MSH (5 µM) 48 h; normalized by β-actin
Protocol: as §4, §5

p-CREB = experiment: Western blot, phosphorylation of CREB in α-MSH-stimulated B16F10 cells; format: cell-based, murine; conditions: 1 and 10 µM, 24 h, then α-MSH (5 µM) 48 h
Protocol: as §4, §5

p-p65 (Ser536) = experiment: Western blot, nuclear p-p65 (Ser536) in UV-induced Hs27 cells; format: cell-based, human; conditions: 1 and 10 µM, 24 h, then UV (50 mJ/cm2) 24 h; normalized to TFIIB
Protocol: (§6) Figure 6 Effects of BHCP on the expression levels of p-p65 (Ser536) in UV-induced Hs27 human fibroblast cells. Cells were preincubated with or without 1 and 10 μM BHCP for 24 h and were stimulated with UV (50 mJ/cm^2) for an additional 24 h. Nuclear protein levels of p-p65 (Ser536) were determined by Western blotting (a); After normalization to TFIIB, relative ratios were quantitated with CS analyzer software (b); Cytosol protein levels of p65 was determined by Western blotting (c); After normalization to β-actin, ratios were quantitated with CS analyzer software (d). Data are expressed as mean ± S.E.M. of three independent experiments. ^# p < 0.05 versus untreated control; * p < 0.05 and ** p < 0.01 versus […].
(§7) The Hs27 cells were washed with ice-cold PBS and harvested. […]
(§8) Lysate samples were boiled for 10 min in gel-loading buffer (125 mM Tris-HCl, 4% sodium dodecyl sulfate (SDS), 10% 2-mercaptoethanol, and 0.2% bromophenol blue; pH 6.8) at a volume ratio of 1:1. […] Antibody labeling was detected by enhanced chemiluminescence in accordance with the manufacturer’s instructions. Protein quantitation was performed using the Davinch-Chemi TM. […]

p65 = experiment: Western blot, cytosol p65 in UV-induced Hs27 cells; format: cell-based, human; conditions: 1 and 10 µM, 24 h, then UV (50 mJ/cm2) 24 h; normalized to β-actin
Protocol: as §6, §7, §8

MMP-1 = experiment: Western blot, MMP-1 expression in UV-induced Hs27 cells; format: cell-based, human; conditions: 1 and 10 µM, 24 h, then UV (50 mJ/cm2) 24 h
Protocol: (§9) Figure 7 Effects of BHCP on the expression levels of MMP-1, MMP-9, MMP-12, and MMP-13 in UV-induced Hs27 human fibroblast cells. Cells were preincubated with or without 1 and 10 μM BHCP for 24 h and were stimulated with UV (50 mJ/cm^2) for an additional 24 h. Harvested cells were lysed and then examined for the expression levels of MMP-1, MMP-9, MMP-12, and MMP-13 by Western blotting (a); The protein levels of MMP-1 (b); MMP-9 (c); MMP-12 (d); and MMP-13 (e) were quantitated with CS analyzer software. MMP-1, MMP-9, MMP-12, and MMP-13 protein levels were normalized by β-actin. Data are expressed as mean ± S.E.M. of three independent experiments. ^# p < 0.05 versus untreated control; * p < 0.05 versus UV stimulation.
as §5

MMP-9 = experiment: Western blot, MMP-9 expression in UV-induced Hs27 cells; format: cell-based, human; conditions: 1 and 10 µM, 24 h, then UV (50 mJ/cm2) 24 h
Protocol: as §9, §5

MMP-12 = experiment: Western blot, MMP-12 expression in UV-induced Hs27 cells; format: cell-based, human; conditions: 1 and 10 µM, 24 h, then UV (50 mJ/cm2) 24 h
Protocol: as §9, §5

MMP-13 = experiment: Western blot, MMP-13 expression in UV-induced Hs27 cells; format: cell-based, human; conditions: 1 and 10 µM, 24 h, then UV (50 mJ/cm2) 24 h
Protocol: as §9, §5

Inhibition Type (L-DOPA) ([2]; substrate L-DOPA)	Inhibition Type (L-Tyrosine) ([2]; substrate L-tyrosine)	Compound	Cellular tyrosinase activity [1] [%]	Cell viability (survival) of B16F10 cells (B16F10 melanoma cells [3])	Cell viability (survival) of Hs27 cells (Hs27 fibroblast cells)	Melanin content (B16F10 melanoma cells [4]; 1 µM) [%]	Melanin content (B16F10 melanoma cells [4]; 5 µM) [%]	Melanin content (B16F10 melanoma cells [4]; 10 µM) [%]	Cellular tyrosinase activity ([1]; 1 µM) [%]	Cellular tyrosinase activity ([1]; 5 µM) [%]	Cellular tyrosinase activity ([1]; 10 µM) [%]	Tyrosinase protein level (tyrosinase)	MITF protein level (MITF)	Phosphorylation of CREB (p-CREB)	Nucleus p-p65 (Ser536) protein level (p-p65 (Ser536))	Total p65 in the cytoplasm (p65)	MMP-1 expression (MMP-1)	MMP-9 expression (MMP-9)	MMP-12 expression (MMP-12)	MMP-13 expression (MMP-13)
–	–	O=c1cc(CO)occ1O [Kojic acid, reference compound]	131	–	–	–	–	–	–	–	–	–	–	–	–	–	–	–	–	–
competitive inhibitor	competitive inhibitor	COc1ccc(/C=C2\CC/C(=C\c3ccc(OC)c(O)c3)C2=O)cc1O [BHCP, (2E,5E)-2,5-bis(3-hydroxy-4-methoxybenzylidene)cyclopentanone]	–	did not reduce the survival	did not reduce the survival	113	106	102	120	116	105	decreased these protein levels	decreased these protein levels	significantly suppressed	decreased	restored	decreased expression in a dose-dependent manner	decreased expression in a dose-dependent manner	decreased expression in a dose-dependent manner	decreased expression in a dose-dependent manner
